Results as given in ChEMBL document CHEMBL2074269, “The interaction of n-tetraalkylammonium compounds with a human organic cation transporter, hOCT1” (J Pharmacol Exp Ther, 1999).

Each compound was assayed against T1, Solute carrier family 22 member 1 (Homo sapiens, UniProt O15245).
T1 sequence (O15245 whole entry): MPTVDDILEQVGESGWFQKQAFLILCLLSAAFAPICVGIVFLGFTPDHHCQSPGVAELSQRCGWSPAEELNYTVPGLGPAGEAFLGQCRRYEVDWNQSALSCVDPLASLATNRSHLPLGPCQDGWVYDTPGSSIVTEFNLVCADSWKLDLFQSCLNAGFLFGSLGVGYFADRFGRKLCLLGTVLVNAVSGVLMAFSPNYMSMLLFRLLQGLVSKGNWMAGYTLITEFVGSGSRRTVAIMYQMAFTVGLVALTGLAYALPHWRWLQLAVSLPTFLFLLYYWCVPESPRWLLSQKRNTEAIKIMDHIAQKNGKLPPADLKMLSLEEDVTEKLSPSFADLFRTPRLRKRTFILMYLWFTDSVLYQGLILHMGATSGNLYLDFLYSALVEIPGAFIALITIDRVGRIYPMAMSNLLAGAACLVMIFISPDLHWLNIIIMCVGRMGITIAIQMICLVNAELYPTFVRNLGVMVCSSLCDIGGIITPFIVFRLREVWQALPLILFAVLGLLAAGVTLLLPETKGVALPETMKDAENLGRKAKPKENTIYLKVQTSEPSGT
Type: functional, cell-based, HeLa
For `CCCCCC[N+](CCCCCC)(CCCCCC)CCCCCC` [TETRAHEXYLAMMONIUM], the IC50 was 3 µM. In the case of `CCC[N+](CCC)(CCC)CCC` [TETRAPROPYLAMMONIUM], the IC50 is reported as 90 µM. For `CCCC[N+](CCCC)(CCCC)CCCC` [TETRABUTHYLAMMONIUM], the IC50 was 52 µM.
